Data on one cell line can be found in the supplement of paper PMC10307832.

Assay in all cases: relative viability (nuclei count vs DMSO), 5 days (fraction); higher = more cells survive
Compound in the test “Idelalisib + Phenformin”: CC[C@H](Nc1ncnc2[nH]cnc12)c1nc2cccc(F)c2c(=O)n1-c1ccccc1 [Idelalisib] + N=C(N)NC(=N)NCCc1ccccc1 [Phenformin] (partner 250 µM)
The procedure, abridged:
(§1)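 Relative viability equals treated-well nuclei counts divided by vehicle-well nuclei counts. Counts came from 4× images of lung cancer cell lines grown in 1536-well plates for 5 days after pin-tool dosing on the day after seeding. Dosing used one drug alone or a fixed anchor-drug dose plus five library-drug doses (not always all listed) in √10 steps, and values are medians of duplicate plates.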

Compound in the test “Idelalisib + Decitabine”: CC[C@H](Nc1ncnc2[nH]cnc12)c1nc2cccc(F)c2c(=O)n1-c1ccccc1 [Idelalisib] + Nc1ncn([C@H]2C[C@H](O)[C@@H](CO)O2)c(=O)n1 [Decitabine] (partner 2 µM)
A digest of the protocol: as §1

Compound in the test “Idelalisib + Tozasertib”: CC[C@H](Nc1ncnc2[nH]cnc12)c1nc2cccc(F)c2c(=O)n1-c1ccccc1 [Idelalisib] + Cc1cc(Nc2cc(N3CCN(C)CC3)nc(Sc3ccc(NC(=O)C4CC4)cc3)n2)n[nH]1 [Tozasertib] (partner 0.1 µM)
A digest of the protocol:
as §1

Compound in the test “Idelalisib + Pemetrexed”: CC[C@H](Nc1ncnc2[nH]cnc12)c1nc2cccc(F)c2c(=O)n1-c1ccccc1 [Idelalisib] + Nc1nc2[nH]cc(CCc3ccc(C(=O)N[C@@H](CCC(=O)O)C(=O)O)cc3)c2c(=O)[nH]1 [Pemetrexed] (partner 0.2 µM)
A digest of the protocol:
as §1

With UMC-11, the relative viability was 0.323 with Idelalisib + Phenformin (first compound 0.04 µM); 0.327 with Idelalisib + Phenformin (first compound 0.1265 µM); 0.303 with Idelalisib + Phenformin (first compound 0.4 µM); 0.321 in the test with Idelalisib + Phenformin (first compound 1.265 µM); 0.318 in the test with Idelalisib + Phenformin (first compound 4 µM); 0.698 with Idelalisib + Decitabine (first compound 0.04 µM). The relative viability with Idelalisib + Decitabine (first compound 0.1265 µM) was 0.595; with Idelalisib + Decitabine (first compound 0.4 µM), 0.577; with Idelalisib + Decitabine (first compound 1.265 µM), 0.609; with Idelalisib + Decitabine (first compound 4 µM), 0.333; in the test with Idelalisib + Tozasertib (first compound 0.04 µM), 0.218; with Idelalisib + Tozasertib (first compound 0.1265 µM) it was 0.192. Also, the relative viability in the test with Idelalisib + Tozasertib (first compound 0.4 µM) worked out at 0.203; in the test with Idelalisib + Tozasertib (first compound 1.265 µM), 0.188; with Idelalisib + Tozasertib (first compound 4 µM) it was 0.192; with Idelalisib + Pemetrexed (first compound 0.04 µM) it was 0.673; with Idelalisib + Pemetrexed (first compound 0.1265 µM), 0.77; with Idelalisib + Pemetrexed (first compound 0.4 µM) it was 0.793. The relative viability with Idelalisib + Pemetrexed (first compound 1.265 µM) was 0.839; in the test with Idelalisib + Pemetrexed (first compound 4 µM), 0.936.
